Measurements as given in the CheMixHub viscosity set.

Test: xn = mol fraction of the nth substance listed

C=CC(=O)OC + CCCCCCCCCCCC
viscosity [mPa·s], 100 kPa
Conditions	x1 = 0.0959	x1 = 0.1996	x1 = 0.3063	x1 = 0.4005	x1 = 0.5043	x1 = 0.603	x1 = 0.7008	x1 = 0.8015	x1 = 0.8993
303.15 K	1.129	1.019	0.916	0.831	0.745	0.67	0.601	0.54	0.486
308.15 K	1.017	0.918	0.825	0.751	0.674	0.611	0.554	0.502	0.458
313.15 K	0.963	0.867	0.779	0.709	0.638	0.58	0.528	0.478	0.438

CC(C)(C)c1ccccc1 + CCCCCCCCCCCC
viscosity [mPa·s], 102 kPa
Conditions	x1 = 0.1017	x1 = 0.2009	x1 = 0.2995	x1 = 0.4002	x1 = 0.5001	x1 = 0.5979	x1 = 0.699	x1 = 0.8	x1 = 0.9006
293.15 K	1.43	1.37	1.32	1.27	1.22	1.18	1.16	1.14	1.13
303.15 K	1.2	1.16	1.12	1.08	1.05	1.02	0.998	0.982	0.975
313.15 K	1.03	0.998	0.971	0.942	0.916	0.895	0.874	0.859	0.854
323.15 K	0.9	0.872	0.846	0.825	0.804	0.787	0.77	0.758	0.752

C=CC(=O)OC + CCCCCCCCCCCCC
viscosity [mPa·s], 100 kPa
Conditions	x1 = 0.1018	x1 = 0.1995	x1 = 0.3067	x1 = 0.4044	x1 = 0.5002	x1 = 0.6038	x1 = 0.7058	x1 = 0.8043	x1 = 0.9012
303.15 K	1.375	1.235	1.091	0.974	0.868	0.765	0.673	0.593	0.513
308.15 K	1.178	1.058	0.936	0.838	0.752	0.669	0.598	0.538	0.477
313.15 K	1.056	0.953	0.845	0.762	0.689	0.618	0.554	0.498	0.446

CC(C)(C)c1ccccc1 + CCCCCCCCCCCCCCCC
viscosity [mPa·s], 100 kPa
Conditions	x2 = 0.0661	x2 = 0.106	x2 = 0.2088	x2 = 0.3087	x2 = 0.3877	x2 = 0.5114	x2 = 0.621	x2 = 0.6915	x2 = 0.8377	x2 = 0.9225
298.15 K	1.236	1.297	1.442	1.566	1.675	1.87	2.073	2.235	2.597	2.821
308.15 K	1.065	1.111	1.235	1.343	1.427	1.584	1.749	1.868	2.138	2.298
318.15 K	0.928	0.968	1.072	1.17	1.247	1.382	1.513	1.606	1.804	1.914

CCCCCCCCCCCCc1ccccc1 + CCCCCCCCCCCCCCCC
viscosity [mPa·s], 102 kPa
Conditions	x1 = 0.09264	x1 = 0.1868	x1 = 0.2826	x1 = 0.3803	x1 = 0.4789	x1 = 0.5793	x1 = 0.6819	x1 = 0.786	x1 = 0.892
293.15 K	3.55	3.67	3.82	3.99	4.16	4.36	4.59	4.85	5.14
303.15 K	2.81	2.9	3.01	3.13	3.26	3.41	3.58	3.76	3.97
313.15 K	2.27	2.35	2.43	2.52	2.63	2.74	2.86	3	3.16
323.15 K	1.88	1.94	2.01	2.08	2.16	2.25	2.34	2.45	2.57

C=CC(=O)OC + CCCCCCCCCCO
viscosity [mPa·s], 101.3 kPa
Conditions	x1 = 0.1056	x1 = 0.2709	x1 = 0.3442	x1 = 0.4717	x1 = 0.5843	x1 = 0.7574	x1 = 0.8309	x1 = 0.8923	x1 = 0.9483	x1 = 0.9749
298.15 K	7.732	4.826	3.593	2.331	1.712	0.938	0.738	0.639	0.519	0.482
308.15 K	5.659	3.531	2.828	1.792	1.425	0.804	0.641	0.54	0.459	0.432

C=CC(=O)OCCCC + CCCCCCCCCCO
viscosity [mPa·s], 101.3 kPa
Conditions	x1 = 0.0646	x1 = 0.1907	x1 = 0.2493	x1 = 0.3612	x1 = 0.4732	x1 = 0.665	x1 = 0.756	x1 = 0.8402	x1 = 0.9227	x1 = 0.9615
298.15 K	9.073	5.873	4.998	3.536	2.535	1.653	1.303	1.07	0.905	0.843
308.15 K	6.488	4.404	3.679	2.762	2.073	1.301	1.115	0.897	0.781	0.723

C=CC(=O)OC + CCCCCCCCO
viscosity [mPa·s], 101.3 kPa
Conditions	x1 = 0.0847	x1 = 0.2398	x1 = 0.3089	x1 = 0.4269	x1 = 0.5391	x1 = 0.7233	x1 = 0.8011	x1 = 0.8748	x1 = 0.9408	x1 = 0.9698
298.15 K	5.555	3.533	2.795	1.948	1.353	0.857	0.692	0.566	0.506	0.47
308.15 K	4.155	2.757	2.06	1.583	1.127	0.732	0.622	0.497	0.433	0.415

C=CC(=O)OCCCC + CCCCCCCCO
viscosity [mPa·s], 101.3 kPa
Conditions	x1 = 0.0586	x1 = 0.1668	x1 = 0.2181	x1 = 0.3218	x1 = 0.4238	x1 = 0.6226	x1 = 0.7052	x1 = 0.8125	x1 = 0.9095	x1 = 0.9529
298.15 K	5.944	4.17	3.544	2.729	2.165	1.403	1.232	0.998	0.9	0.85
308.15 K	4.393	3.177	2.752	2.096	1.689	1.146	0.992	0.841	0.753	0.715

C=CC(=O)OC + CCCCCCCO
viscosity [mPa·s], 101.3 kPa
Conditions	x1 = 0.0803	x1 = 0.219	x1 = 0.2841	x1 = 0.4009	x1 = 0.5184	x1 = 0.7017	x1 = 0.7824	x1 = 0.8604	x1 = 0.9347	x1 = 0.9686
298.15 K	4.278	2.912	2.304	1.632	1.218	0.783	0.653	0.563	0.493	0.467
308.15 K	3.262	2.282	1.857	1.348	1.032	0.677	0.568	0.49	0.428	0.411

C=CC(=O)OCCCC + CCCCCCCO
viscosity [mPa·s], 101.3 kPa
Conditions	x1 = 0.0538	x1 = 0.1451	x1 = 0.1979	x1 = 0.2976	x1 = 0.5964	x1 = 0.6984	x1 = 0.7966	x1 = 0.8968	x1 = 0.9498
298.15 K	4.656	3.548	3.084	2.394	1.35	1.12	0.981	0.869	0.824
308.15 K	3.481	2.761	2.398	1.922	1.084	0.925	0.836	0.736	0.705

C=CC(=O)OC + CCCCCCO
viscosity [mPa·s], 101.33 kPa
Conditions	308.15 K	318.15 K
x1 = 0.0466	2.892	2.186
x1 = 0.149	2.128	1.687
x1 = 0.2479	1.616	1.331
x1 = 0.3487	1.247	1.059
x1 = 0.4466	0.989	0.859
x1 = 0.4989	0.881	0.772
x1 = 0.5479	0.795	0.701
x1 = 0.6418	0.662	0.588
x1 = 0.7501	0.549	0.486
x1 = 0.8501	0.472	0.414
x1 = 0.9438	0.417	0.36
